In patent US12630532B2, “Indole-substituted quinolines and their combination with Plk1 inhibitors for the treatment of cancer” (UNIVERSITY OF KENTUCKY RESEARCH FOUNDATION, priority 2021, dated 2026):

test system: LS174T cells; experiment: Cell proliferation inhibition assay (5 days, cell counting); assay type: cell-based; settings: 250 nM, 5 days
Experimental: Cell proliferation inhibition assays were done following a previous report (32). Cancer cells were seeded into 24-well plates at a density of 20,000 cells per well in 1 mL of culture medium and were cultured overnight at 37° C. Compounds and the vehicle control (DMSO) were added to the cells. After 5 days, the medium was removed, and 100 μL of trypsin was added. The cells were resuspended in phosphate-buffered saline (PBS) and were counted by Vi-CELL XR 2.03 (Beckman Coulter, Inc. USA). The ratio R of the number of viable cells in the compound treatment group to the number of viable cells in DMSO treatment group was taken as relative growth, and the percentage growth inhibition was calculated as (1−R)*100.

With “3-(1-Methyl-1H-indol-3-yl)-7-(4-methylpiperazin-1-yl)quinolin-2-amine [ISQ-3]” the “Inhibition % on LS174T cells Proliferation 250 nM” value was 27 ± 14%.

same assay, conditions: 0.3 uM

“3-(1-Methyl-1H-indol-3-yl)-7-(4-methylpiperazin-1-yl)quinolin-2-amine [ISQ-3]” was tested, and the “Inhibition % on LS174T cells Proliferation 0.3 uM Inhib. %” value was 73.9%.

same assay, conditions: 500 nM

For `Cn1cc(-c2cc3ccc(N4CCC(c5ccncc5)CC4)cc3nc2N)c2ccccc21` [ISQ-10, 3-(1-Methyl-1H-indol-3-yl)-7-(4-(pyridin-4-yl)piperidin-1-yl)quinolin-2-amine], the “percentage inhibition of LS174T cell proliferation at 500 nM, compared among ISQs (FIG. 2B)” value (shortened to “percentage inhibition”) was “comparable to the N,N-dimethylamino group in ISQ-1”.
In the case of `COCC1CCN(c2ccc3cc(-c4cn(C)c5ccccc45)c(N)nc3c2)CC1` [ISQ-9, 7-(4-(Methoxymethyl)piperidin-1-yl)-3-(1-methyl-1H-indol-3-yl)quinolin-2-amine], the “percentage inhibition” value is reported as “comparable to the N,N-dimethylamino group in ISQ-1”.
With `Cn1cc(-c2cc3ccc(N4CCC(CO)CC4)cc3nc2N)c2ccccc21` [ISQ-8, (1-(2-Amino-3-(1-methyl-1H-indol-3-yl)quinolin-7-yl)piperidin-4-yl)methanol] the “percentage inhibition” value was “comparable to the N,N-dimethylamino group in ISQ-1”.

same assay, conditions: 500 nM, 5 days

In the case of “3-(1-Methyl-1H-indol-3-yl)-7-(4-methylpiperazin-1-yl)quinolin-2-amine [ISQ-3]”, the “Inhibition % on LS174T cells Proliferation 500 nM” value is reported as 89 ± 2.1%.

same assay, conditions: 1 uM

“3-(1-Methyl-1H-indol-3-yl)-7-(4-methylpiperazin-1-yl)quinolin-2-amine [ISQ-3]” was tested, and the “Inhibition % on LS174T cells Proliferation 1 uM Inhib. %” value was 95.5%.

same assay, conditions: 3 uM

For “3-(1-Methyl-1H-indol-3-yl)-7-(4-methylpiperazin-1-yl)quinolin-2-amine [ISQ-3]”, the “Inhibition % on LS174T cells Proliferation 3 uM Inhib. %” value was 99.7%.

same assay, conditions: Homo sapiens, LS174T, 120 h; 62 nM, 5 days

Point of comparison: `Cn1cc(-c2cc3ccc(N4CCCCC4)cc3nc2N)c2ccccc21` [ISQ-2, 3-(1-Methyl-1H-indol-3-yl)-7-(piperidin-1-yl)quinolin-2-amine], inhibition at 0.062 µM 8.2 ± 5.6%. Against it:
- COCC1CCN(c2ccc3cc(-c4ccccc4F)c(N)nc3c2)CC1 [LMK-6-109] — within error, 16 ± 8.4%
- Nc1nc2cc(N3CCC(c4ccccc4)CC3)ccc2cc1-c1ccccc1F [LMK-6-89] — within error, 2 ± 3%
- N#CC1CCN(c2ccc3cc(-c4ccccc4F)c(N)nc3c2)CC1 [LMK-6-99] — lower, 2 ± 0.2%
- Cn1cc(-c2cc3ccc(N4CCC(c5ccncc5)CC4)cc3nc2N)c2ccccc21 [ISQ-10, 3-(1-Methyl-1H-indol-3-yl)-7-(4-(pyridin-4-yl)piperidin-1-yl)quinolin-2-amine] — higher, 21 ± 5.7%
- COCC1CCN(c2ccc3cc(-c4cn(C)c5ccccc45)c(N)nc3c2)CC1 [ISQ-9, 7-(4-(Methoxymethyl)piperidin-1-yl)-3-(1-methyl-1H-indol-3-yl)quinolin-2-amine] — within error, 12 ± 1.9%
- Nc1nc2cc(N3CCC(CO)CC3)ccc2cc1-c1ccccc1F [LMK-6-117] — within error, 12 ± 1.4%
- Cn1cc(-c2cc3ccc(N4CCC(CO)CC4)cc3nc2N)c2ccccc21 [ISQ-8, (1-(2-Amino-3-(1-methyl-1H-indol-3-yl)quinolin-7-yl)piperidin-4-yl)methanol] — within error, 20 ± 9%

same assay, conditions: Homo sapiens, LS174T, 120 h; 125 nM, 5 days

Point of comparison: `Nc1nc2cc(N3CCC(c4ccccc4)CC3)ccc2cc1-c1ccccc1F` [LMK-6-89], inhibition at 0.125 µM 20 ± 0.6%. Against it:
- COCC1CCN(c2ccc3cc(-c4ccccc4F)c(N)nc3c2)CC1 [LMK-6-109] — higher, 29 ± 0.3%
- N#CC1CCN(c2ccc3cc(-c4ccccc4F)c(N)nc3c2)CC1 [LMK-6-99] — lower, 9 ± 2.2%
- Cn1cc(-c2cc3ccc(N4CCC(c5ccncc5)CC4)cc3nc2N)c2ccccc21 [ISQ-10, 3-(1-Methyl-1H-indol-3-yl)-7-(4-(pyridin-4-yl)piperidin-1-yl)quinolin-2-amine] — higher, 84 ± 2.7%
- COCC1CCN(c2ccc3cc(-c4cn(C)c5ccccc45)c(N)nc3c2)CC1 [ISQ-9, 7-(4-(Methoxymethyl)piperidin-1-yl)-3-(1-methyl-1H-indol-3-yl)quinolin-2-amine] — higher, 55 ± 2.3%
- Nc1nc2cc(N3CCC(CO)CC3)ccc2cc1-c1ccccc1F [LMK-6-117] — lower, 12 ± 0.7%
- Cn1cc(-c2cc3ccc(N4CCC(CO)CC4)cc3nc2N)c2ccccc21 [ISQ-8, (1-(2-Amino-3-(1-methyl-1H-indol-3-yl)quinolin-7-yl)piperidin-4-yl)methanol] — higher, 59 ± 2.7%
- Cn1cc(-c2cc3ccc(N4CCCCC4)cc3nc2N)c2ccccc21 [ISQ-2, 3-(1-Methyl-1H-indol-3-yl)-7-(piperidin-1-yl)quinolin-2-amine] — higher, 28 ± 4.6%

same assay, conditions: Homo sapiens, LS174T, 120 h; 250 nM, 5 days

Point of comparison: `Cn1cc(-c2cc3ccc(N4CCC(CO)CC4)cc3nc2N)c2ccccc21` [ISQ-8, (1-(2-Amino-3-(1-methyl-1H-indol-3-yl)quinolin-7-yl)piperidin-4-yl)methanol], inhibition at 0.25 µM 97 ± 0.2%. Against it:
- COCC1CCN(c2ccc3cc(-c4ccccc4F)c(N)nc3c2)CC1 [LMK-6-109] — lower, 70 ± 8.8%
- Nc1nc2cc(N3CCC(c4ccccc4)CC3)ccc2cc1-c1ccccc1F [LMK-6-89] — lower, 23 ± 3.8%
- N#CC1CCN(c2ccc3cc(-c4ccccc4F)c(N)nc3c2)CC1 [LMK-6-99] — lower, 17 ± 0.1%
- Cn1cc(-c2cc3ccc(N4CCC(c5ccncc5)CC4)cc3nc2N)c2ccccc21 [ISQ-10, 3-(1-Methyl-1H-indol-3-yl)-7-(4-(pyridin-4-yl)piperidin-1-yl)quinolin-2-amine] — within error, 99 ± 13.1%
- COCC1CCN(c2ccc3cc(-c4cn(C)c5ccccc45)c(N)nc3c2)CC1 [ISQ-9, 7-(4-(Methoxymethyl)piperidin-1-yl)-3-(1-methyl-1H-indol-3-yl)quinolin-2-amine] — higher, 98%
- Nc1nc2cc(N3CCC(CO)CC3)ccc2cc1-c1ccccc1F [LMK-6-117] — lower, 32 ± 10.5%
- Cn1cc(-c2cc3ccc(N4CCCCC4)cc3nc2N)c2ccccc21 [ISQ-2, 3-(1-Methyl-1H-indol-3-yl)-7-(piperidin-1-yl)quinolin-2-amine] — lower, 55 ± 0.5%

same assay, conditions: Homo sapiens, LS174T, 120 h; 500 nM, 5 days

Point of comparison: `COCC1CCN(c2ccc3cc(-c4cn(C)c5ccccc45)c(N)nc3c2)CC1` [ISQ-9, 7-(4-(Methoxymethyl)piperidin-1-yl)-3-(1-methyl-1H-indol-3-yl)quinolin-2-amine], inhibition at 0.5 µM 99 ± 0.1%. Against it:
- COCC1CCN(c2ccc3cc(-c4ccccc4F)c(N)nc3c2)CC1 [LMK-6-109] — lower, 94 ± 0.1%
- Nc1nc2cc(N3CCC(c4ccccc4)CC3)ccc2cc1-c1ccccc1F [LMK-6-89] — lower, 89 ± 1%
- N#CC1CCN(c2ccc3cc(-c4ccccc4F)c(N)nc3c2)CC1 [LMK-6-99] — lower, 64 ± 3.5%
- Cn1cc(-c2cc3ccc(N4CCC(c5ccncc5)CC4)cc3nc2N)c2ccccc21 [ISQ-10, 3-(1-Methyl-1H-indol-3-yl)-7-(4-(pyridin-4-yl)piperidin-1-yl)quinolin-2-amine] — the same, 99 ± 0.1%
- Cn1cc(-c2cc3ccc(N4CCC(Cc5ccccc5)CC4)cc3nc2N)c2ccccc21 [ISQ-5, 7-(4-Benzylpiperidin-1-yl)-3-(1-methyl-1H-indol-3-yl)quinolin-2-amine] — lower, 21 ± 3.9%
- CC(C)C1CCN(c2ccc3cc(-c4cn(C)c5ccccc45)c(N)nc3c2)CC1 [ISQ-4, 7-(4-Isopropylpiperidin-1-yl)-3-(1-methyl-1H-indol-3-yl)quinolin-2-amine] — lower, 36 ± 0.9%
- Nc1nc2cc(N3CCC(Cc4ccccc4)CC3)ccc2cc1-c1ccccc1F [LMK-6-91] — lower, 14 ± 1.2%
- CC(C)C1CCN(c2ccc3cc(-c4ccccc4F)c(N)nc3c2)CC1 [LMK-6-84] — lower, 79 ± 5.7%
- Nc1nc2cc(N3CCC(CO)CC3)ccc2cc1-c1ccccc1F [LMK-6-117] — lower, 59 ± 0.3%
- Cn1cc(-c2cc3ccc(N4CCC(CO)CC4)cc3nc2N)c2ccccc21 [ISQ-8, (1-(2-Amino-3-(1-methyl-1H-indol-3-yl)quinolin-7-yl)piperidin-4-yl)methanol] — lower, 98 ± 0.6%
- Cn1cc(-c2cc3ccc(N4CCC(c5ccccc5)CC4)cc3nc2N)c2ccccc21 [ISQ-6, 3-(1-Methyl-1H-indol-3-yl)-7-(4-phenylpiperidin-1-yl)quinolin-2-amine] — lower, 56 ± 13.1%
- Cn1cc(-c2cc3ccc(N4CCCCC4)cc3nc2N)c2ccccc21 [ISQ-2, 3-(1-Methyl-1H-indol-3-yl)-7-(piperidin-1-yl)quinolin-2-amine] — lower, 97 ± 0.4%

same assay, conditions: Homo sapiens, LS174T; read-out: Inhibition % on LS174T cells Proliferation 0.3 uM Inhib. %

Point of comparison: `CN(C)c1ccc2cc(-c3coc4ccccc34)c(N)nc2c1` [VMS-7-7], inhibition at 0.3 µM 87.2%. Against it:
- Nc1nc2cc(N3CCCCC3)ccc2cc1-c1ccccc1F [LMK-5-286] — lower, 21.9%
- CN(C)c1ccc2cc(-c3ccc(Cl)c(Cl)c3)c(N)nc2c1 [VMS-4-57] — lower, 26.7%
- Nc1nc2cc(N3CCCC3)ccc2cc1-c1cc(Cl)cc(Cl)c1 [LMK-5-280] — lower, 31%

same assay, conditions: Homo sapiens, LS174T; read-out: Inhibition % on LS174T cells Proliferation 1 uM Inhib. %

Point of comparison: `Nc1nc2cc(N3CCCCC3)ccc2cc1-c1ccccc1F` [LMK-5-286], inhibition at 1 µM 96%. Against it:
- CN(C)c1ccc2cc(-c3coc4ccccc34)c(N)nc2c1 [VMS-7-7] — higher, 97.8%
- CN(C)c1ccc2cc(-c3ccc(Cl)c(Cl)c3)c(N)nc2c1 [VMS-4-57] — lower, 57.8%
- Nc1nc2cc(N3CCCC3)ccc2cc1-c1cc(Cl)cc(Cl)c1 [LMK-5-280] — lower, 93.1%

same assay, conditions: Homo sapiens, LS174T; read-out: Inhibition % on LS174T cells Proliferation 3 uM Inhib. %

Point of comparison: `CN(C)c1ccc2cc(-c3ccc(Cl)c(Cl)c3)c(N)nc2c1` [VMS-4-57], inhibition at 3 µM 74.3%. Against it:
- Nc1nc2cc(N3CCCCC3)ccc2cc1-c1ccccc1F [LMK-5-286] — higher, 97%
- CN(C)c1ccc2cc(-c3coc4ccccc34)c(N)nc2c1 [VMS-7-7] — higher, 96.8%
- Nc1nc2cc(N3CCCC3)ccc2cc1-c1cc(Cl)cc(Cl)c1 [LMK-5-280] — higher, 97.7%

same assay, conditions: Homo sapiens; dose response studies, LS174T; read-out: IC50 values in cell proliferation assays

Point of comparison: `Cn1cc(-c2cc3ccc(N4CCC(CO)CC4)cc3nc2N)c2ccccc21` [ISQ-8, (1-(2-Amino-3-(1-methyl-1H-indol-3-yl)quinolin-7-yl)piperidin-4-yl)methanol], IC50 ~100 nM. Against it:
- Cn1cc(-c2cc3ccc(N4CCC(c5ccncc5)CC4)cc3nc2N)c2ccccc21 [ISQ-10, 3-(1-Methyl-1H-indol-3-yl)-7-(4-(pyridin-4-yl)piperidin-1-yl)quinolin-2-amine] — the same, ~100 nM
- COCC1CCN(c2ccc3cc(-c4cn(C)c5ccccc45)c(N)nc3c2)CC1 [ISQ-9, 7-(4-(Methoxymethyl)piperidin-1-yl)-3-(1-methyl-1H-indol-3-yl)quinolin-2-amine] — the same, ~100 nM
